Experiment [1] addresses T1, H+/K+-ATPase (hog gastric vesicle) (Sus scrofa, UniProt P19156).
T1 construct: used as an enzyme source of the in vitro enzyme reaction assay of proton pump; from tissue; host or cells: hog gastric fundic mucosa, membrane vesicles (sucrose/Ficoll gradient), lyophilized
The experiment is described as follows: Inhibitory effects on proton pump (H+/K+-ATPase) activity. Type of experiment: biochemical. The following applies: K+ stimulated H+/K+-ATPase activity, hog gastric vesicles, Pi measured at 620 nm. Here is the method:
The hog fundic regions containing parietal and peptic cells were scraped with slide-glass. The collected cells were suspended in 10 ml of 0.25M sucrose buffer and homogenized using a tight-fitting Teflon-glass homogenizer. The homogenate was centrifuged for 35 min at 8,000 rpm and the pellet was discarded. The supernatant was further centrifuged for 75 min at 25,000 rpm. The resulting pellets were re-suspended in the sucrose buffer (10 ml), and then the suspension was laid onto discontinuous density gradients consisting of 0.25M sucrose buffer and isolation medium containing 9% Ficoll (w/w). After being centrifuged for 3 hours and 15 minutes at 100,000×g, the material at the interface of sucrose buffer and Ficoll solution was collected and then centrifuged for 40 minutes at 100,000×g. The resulting pellets were re-suspended in 1 ml of 5 mM […] buffer (pH 6.1). This material was lyophilized and stored at −70° C. and used as an enzyme source of the in vitro enzyme reaction assay of proton pump. The inhibitory effects of the compounds of the present invention against proton pump activity were evaluated in 96-well plate. In this assay, the K^+ specific H^+/K^+-ATPase activity was calculated based on the difference between the activity of H^+/K^+-ATPase activity with K^+ and without K^+ ion. In 96-well plate, 1% dimethylsulfoxide (DMSO) in buffer was added to negative and positive control groups and the diluted compounds of the present invention in buffer were added to test group. All assays were performed in 100 μl reaction volume at room temperature, and the hog gastric vesicle was kept in ice before use. […] Then lyophilized vesicle in 5 mM Pipes/Tris buffer (pH 6.1) was pre-incubated in the presence of various concentrations of test compounds. After a 5 minute incubation, negative and positive buffers were respectively added to the previous reaction mixture. As the substrate, ATP was added to the reaction buffer, and incubated for 30 minutes at 37° C. Enzymatic activity was stopped by the addition of colorimetric reagent (2× malachite green, 1× ammonium molybdate, 1× polyvinyl alcohol, 2× H2O) and the amount of mono phosphate (Pi) in the reaction was measured at 620 nm using the micro plate reader (Genios Pro, TECAN). The difference between the Pi production with K^+ and without K^+ is taken as K^+ stimulated H^+/K^+-ATPase activity. The IC50s of test compounds were calculated from each % inhibition value of compounds using the method of Litchfield-Wilcoxon (J. Pharmacol. Exp. Ther. (1949) 96, 99).

Experiment [2] relates to basal gastric acid secretion in pylorus-ligated rats. Description: Inhibitory effects on basal gastric acid secretion in pylorus-ligated rats (Shay's rat model). Type of experiment: in vivo, rat (Sprague Dawley). The following applies: oral, one hour before pylorus ligation, total acid output 5 hours after ligation, male SD rats. Here is the method:
Inhibitory effects of the compounds of the present invention on basal gastric acid secretion were performed according to Shay's rat model (Shay, H., et al., 1945, gastroenterology, 5, 43-61). Male Sprague Dawley (SD) rats (200±10 g body weight) were divided into […] (n=5) and fasted for 24 hours with free access to water. Control group was orally administered with 0.5% methylcellulose alone and the other groups were orally administered with test compounds suspended in 0.5% methylcellulose solution at doses of 1, 3 and 10 mg/kg/5 ml one hour before pylorus ligation.
Under ether anesthesia, the abdomens of the rats were incised and then the pylorus was ligated. 5 hours after ligation, the animals were sacrificed, and the gastric contents were collected. The collected contents were centrifuged at 1,000×g for 10 minutes to obtain the gastric juice. Total acid output was measured by 0.01 N NaOH volume (ueq/ml) for automatic titration of the gastric juice to pH 7.0 and the ED50s of test compounds were calculated using the Litchfield-Wilcoxon method. % inhibitory activity was calculated from the following equation and the results are shown in Table 2.
% inhibitory activity of test compound=(total acid output of control group−total acid output of the group treated with test compounds)/total acid output of control group×100

For experiment [3], the target named is T2, hog gastric H+/K+-ATPase (Sus scrofa, UniProt P19156).
T2 construct: Gastric vesicles were prepared from hog fundic mucosa; from tissue; host or cells: hog fundic mucosa, gastric vesicles (microsomes), lyophilized
T2 sequence (P19156 2-1034 limits assumed): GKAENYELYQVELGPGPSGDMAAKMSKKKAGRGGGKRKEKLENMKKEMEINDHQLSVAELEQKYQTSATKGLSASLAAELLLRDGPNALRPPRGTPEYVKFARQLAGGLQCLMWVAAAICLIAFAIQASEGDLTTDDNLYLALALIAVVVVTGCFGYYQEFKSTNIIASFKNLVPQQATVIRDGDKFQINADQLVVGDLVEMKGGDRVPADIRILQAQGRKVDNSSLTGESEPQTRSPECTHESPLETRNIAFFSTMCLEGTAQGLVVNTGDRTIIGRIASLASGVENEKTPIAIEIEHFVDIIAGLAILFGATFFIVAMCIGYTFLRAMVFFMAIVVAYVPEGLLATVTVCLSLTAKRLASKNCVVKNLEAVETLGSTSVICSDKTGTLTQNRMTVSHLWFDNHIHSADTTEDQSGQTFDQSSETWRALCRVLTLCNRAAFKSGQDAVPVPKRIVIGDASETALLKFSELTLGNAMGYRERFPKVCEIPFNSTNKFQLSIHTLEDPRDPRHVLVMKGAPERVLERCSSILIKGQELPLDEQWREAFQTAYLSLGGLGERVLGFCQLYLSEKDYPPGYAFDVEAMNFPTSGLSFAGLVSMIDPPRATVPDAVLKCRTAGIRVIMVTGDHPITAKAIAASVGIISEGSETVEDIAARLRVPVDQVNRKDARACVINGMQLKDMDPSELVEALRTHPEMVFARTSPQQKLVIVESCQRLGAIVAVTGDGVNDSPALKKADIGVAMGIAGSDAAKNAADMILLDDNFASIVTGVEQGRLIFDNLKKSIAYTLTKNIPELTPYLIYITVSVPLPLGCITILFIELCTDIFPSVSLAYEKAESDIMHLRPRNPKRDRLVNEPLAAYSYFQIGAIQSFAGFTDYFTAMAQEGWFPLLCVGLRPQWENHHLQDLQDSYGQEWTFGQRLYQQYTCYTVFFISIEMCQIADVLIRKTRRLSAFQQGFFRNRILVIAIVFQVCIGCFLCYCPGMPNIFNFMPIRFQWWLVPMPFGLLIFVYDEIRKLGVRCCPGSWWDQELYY
T2 sequence (P18434 whole entry partner): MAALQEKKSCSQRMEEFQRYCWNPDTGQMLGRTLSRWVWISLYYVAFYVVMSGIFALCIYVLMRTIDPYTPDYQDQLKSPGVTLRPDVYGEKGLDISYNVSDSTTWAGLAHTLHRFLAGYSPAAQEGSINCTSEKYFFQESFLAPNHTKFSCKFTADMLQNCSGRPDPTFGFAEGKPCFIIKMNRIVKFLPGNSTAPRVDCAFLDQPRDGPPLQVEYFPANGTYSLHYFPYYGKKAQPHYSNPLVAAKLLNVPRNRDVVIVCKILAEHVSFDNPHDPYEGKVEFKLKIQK
Description: Reversible inhibition of hog gastric H+/K+-ATPase (washout method). It counts as biochemical. Here is the method: Gastric vesicles were prepared from hog fundic mucosa using the method of Saccomani et al. (Saccomani G, Stewart H B, Shqw D, Lewin M and Sachs G, Characterization of gastric mucosal membranes. IX. Fraction and purification of K-ATPase-containing vesicles by zonal centrifugation and free-flow electrophoresis technique. Biochem. Biophy. Acta. (BBA)-Biomembranes 465, 311-330, 1977). This material was lyophilized and stored at −70° C. The protein content of gastric vesicles was determined by the Bradford method using bovine serum albumin as a standard (Bradford MM, A rapid and sensitive method for the quantitation of microgram quantities of protein utilizing the principle of protein-dye binding. Anal Biochem. 72, 248-254, 1976).
Activity of H^+/K^+-ATPase in hog microsome (lyophilized vesicle) was measured by the inorganic phosphate released from ATP using an one-step colorimetric detection method at the concentration at which the test compounds have 50% inhibition of the proton pump (Chan K M, Delfert D, and Junger K D, A direct colorimetric assay for Ca^2+-stimulated ATPase activity. Anal Biochem, 157, 375-380, 1986). […]

Counter-ions that a name gives are not always drawn.

T1 sequence (P19156 2-1034 limits assumed): as the sequence (P19156 2-1034 limits assumed) above
T1 sequence (P18434 whole entry partner): as the sequence (P18434 whole entry partner) above

As a reminder, the IC50 is the midpoint of a concentration-inhibition curve. Higher therefore signals weaker potency. As to `Cc1[nH]c2ccnc(N3CCc4ccccc4C3)c2c1C` [Example 1, 2,3-dimethyl-4-(1,2,3,4-tetrahydroisoquinolin-2-yl)-1H-pyrrolo[3,2-c]pyridine], in experiment [1], half-maximal inhibition (IC50) was put at 470 nM.
In the case of `COCCn1c(C)c(C)c2c(N3CCc4ccccc4C3)nccc21` [Example 3, 2,3-dimethyl-1-(2-methoxyethyl)-4-(1,2,3,4-tetrahydroisoquinolin-2-yl)-1H-pyrrolo[3,2-c]pyridine hydrochloride], in experiment [1], half-maximal inhibition (IC50) was put at 2050 nM.
On the same count and under the same terms, under `Cc1c(C)n(C)c2ccnc(N3CCc4ccccc4C3)c12` [Example 6, 1,2,3-trimethyl-4-(1,2,3,4-tetrahydroisoquinolin-2-yl)-1H-pyrrolo[3,2-c]pyridine hydrochloride] stands 430 nM; under `CCn1c(C)c(C)c2c(N3CCc4ccccc4C3)nccc21` [Example 7, 1-ethyl-2,3-dimethyl-4-(1,2,3,4-tetrahydroisoquinolin-2-yl)-1H-pyrrolo[3,2-c]pyridine hydrochloride], 1030 nM; under `Cc1c(C)n(CCO)c2ccnc(N3CCc4ccccc4C3)c12` [Example 20, 2,3-dimethyl-1-(2-hydroxyethyl)-4-(1,2,3,4-tetrahydroisoquinolin-2-yl)-1H-pyrrolo[3,2-c]pyridine hydrochloride], below 4000 nM.
The ED50 is the midpoint of the dose-response relation. A lower ED50 goes with greater potency. As for `Cc1[nH]c2ccnc(N3CCc4ccccc4C3)c2c1Cc1ccccc1.Cl` [Example 55, 3-benzyl-2-methyl-4-(1,2,3,4-tetrahydroisoquinolin-2-yl)-1H-pyrrolo[3,2-c]pyridine hydrochloride], in experiment [1], inhibition was half-maximal at 90 nM (IC50). Also, the ED50 in experiment [2] worked out at 1.6 mg/kg. Further, in experiment [3] (after washout, compared with non-treated group), the “inhibition of H+/K+-ATPase activity after washout” value is reported as “did not inhibit”. For the same compound, in experiment [3] (before washout, compound at the concentration giving 50% inhibition), the “inhibition of H+/K+-ATPase activity before washout” value amounted to 50%.
`Cc1c(Cc2ccccc2)c2c(N3CCc4ccccc4C3)nccc2n1C.Cl` [Example 56, 3-benzyl-1,2-dimethyl-4-(1,2,3,4-tetrahydroisoquinolin-2-yl)-1H-pyrrolo[3,2-c]pyridine hydrochloride]: half-maximal inhibition in experiment [1] (IC50) required 230 nM. It took a dose of 2.9 mg/kg to reach the 50% effect level in experiment [2] (ED50).
With `Cc1c(Cc2ccccc2)c2c(N3CCc4ccccc4C3)nccc2n1C1CC1` [Example 61, 3-benzyl-1-cyclopropyl-2-methyl-4-(1,2,3,4-tetrahydroisoquinolin-2-yl)-1H-pyrrolo[3,2-c]pyridine hydrochloride], in experiment [1], it took 280 nM to reach half-maximal inhibition (IC50). That is a sub-micromolar value.
The compound `COCCn1c(C)c(Cc2ccccc2)c2c(N3CCc4ccccc4C3)nccc21` [Example 63, 3-benzyl-1-(2-methoxyethyl)-2-methyl-4-(1,2,3,4-tetrahydroisoquinolin-2-yl)-1H-pyrrolo[3,2-c]pyridine hydrochloride] showed a 50% inhibitory concentration (IC50) in experiment [1] below 4000 nM.
Still for that read-out and setting: the value for `Cc1c(Cc2ccccc2)c2c(N3CCc4ccccc4C3)nccc2n1CC1OCCO1` [Example 65, 3-benzyl-1-([1,3]dioxolan-2-ylmethyl)-2-methyl-4-(1,2,3,4-tetrahydroisoquinolin-2-yl)-1H-pyrrolo[3,2-c]pyridine hydrochloride] was 2120 nM; that for `Cc1c(Cc2ccccc2)c2c(N3CCc4ccccc4C3)nccc2n1Cc1ccccc1` [Example 66, 1,3-dibenzyl-2-methyl-4-(1,2,3,4-tetrahydroisoquinolin-2-yl)-1H-pyrrolo[3,2-c]pyridine hydrochloride] was below 4000 nM; that for `Cc1[nH]c2ccnc(N3CCc4ccccc4C3)c2c1Cc1ccccc1` [Example 70, 3-benzyl-2-methyl-4-(1,2,3,4-tetrahydroisoquinolin-2-yl)-1H-pyrrolo[3,2-c]pyridine sodium] was 220 nM.
`Cc1[nH]c2ccnc(NCc3ccc(F)cc3)c2c1Cc1ccccc1` [Example 71, 3-benzyl-2-methyl-4-(4-fluorobenzylamino)-1H-pyrrolo[3,2-c]pyridine hydrochloride] yielded an IC50 in experiment [1] of 530 nM. This IC50 is about 2.4-fold higher than that of the compound before.

Values taken from patent publication US8513277B2, “Pyrrolo[3,2-C] pyridine derivatives and processes for the preparation thereof” (Yuhan Corporation, priority 2004, dated 2013).
